Measurements reported in the supplement of paper PMC10307832.

Compound: CN1CCN(CC1)C2=CC(=C(C=C2)NC3=NC=C4C(=N3)N(C5=CC=CC=C5C(=O)N4C)C)OC [XMD8-85]
Experiment: relative viability (nuclei count vs DMSO), 5 days (fraction); higher = more cells survive
Conditions: 8 µM
Summary of the method: (§1)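 Lung cancer cell lines in 1536-well plates were kept overnight at 37 °C, then pinned with five library-drug doses (not always all listed) spaced by √10 on vehicle-anchored plates. After 5 days without medium change, cells were fixed, permeabilised and Hoechst-stained in one step, imaged at 4×, and nuclei were counted with MetaXpress. Viability is treated-well nuclei divided by vehicle-well nuclei, taken as the median over plates. Plates passed only with control CV below 25% and at least one doubling.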

Cell Line | relative viability
H3255 | 0.674
HARA | 0.611
HCC-15 | 0.849
HCC-44 | 0.812
HCC-78 | 0.512
HCC-366 | 0.938
HCC-827 | 1.04
IA-LM | 0.489
LC-2-ad | 0.498
LCLC-97TM1 | 1.05
LCLC-103H | 0.88
LK-2 | 0.616
LOU-NH91 | 0.734
LU99A | 0.831
NCI-H441 | 0.801
NCI-H522 | 0.677
NCI-H1623 | 0.833
NCI-H1648 | 0.869
NCI-H2342 | 1.06
SW 900 | 0.465

Compound: O=C(O)C(Cc1ccccc1[N+](=O)[O-])=NNc1nc(-c2ccc(Cl)c(Cl)c2)cs1 (mixture of isomers) [4EGI-1]
Experiment: as above
Conditions: 0.5 µM
Summary of the method: as §1

Cell Line | relative viability
201T | 1.05
A549 | 1.03
A-427 | 1.05
ABC-1 | 1.08
BEN | 1.15
CAL-12T | 1.03
COR-L23 | 1.08
COR-L 105 | 0.91
Calu-6 | 1.03
ChaGo-K-1 | 0.976
EBC-1 | 1.11
EKVX | 1.05
EMC-BAC-2 | 1.07
EPLC-272H | 1.07
H3255 | 1.1
HARA | 1.07
HCC-15 | 0.982
HCC-44 | 0.999

Cell Line | relative viability
HCC-78 | 1.09
HCC-366 | 1.02
HCC-827 | 1.02
HOP-62 | 1.02
IA-LM | 1.03
LC-2-ad | 1.06
LCLC-97TM1 | 1.01
LCLC-103H | 1.01
LK-2 | 1.11
LOU-NH91 | 1.02
LU99A | 0.989
NCI-H441 | 1.22
NCI-H522 | 1.01
NCI-H1623 | 1.17
NCI-H1648 | 0.831
NCI-H2342 | 1.13
SW 900 | 1.05

Same assay, conditions: 1.581 µM

Cell Line | relative viability
201T | 0.955
A549 | 0.792
A-427 | 0.762
ABC-1 | 0.819
BEN | 1.07
COR-L23 | 0.859
COR-L 105 | 0.879
Calu-6 | 0.887
ChaGo-K-1 | 0.762
EBC-1 | 1.05
EKVX | 0.746
EPLC-272H | 0.659
H3255 | 0.784
HARA | 1
HCC-15 | 1.02
HCC-44 | 0.507
HCC-78 | 0.739
HCC-366 | 0.816
HCC-827 | 0.923
IA-LM | 0.848
LC-2-ad | 0.716
LCLC-103H | 0.929
LU99A | 0.859
NCI-H441 | 0.868
NCI-H522 | 0.878
NCI-H1623 | 0.85
NCI-H1648 | 0.958
NCI-H2342 | 0.889
SW 900 | 0.755

Same assay, conditions: 5 µM

Cell Line | relative viability
201T | 1.05
A549 | 0.977
A-427 | 1
ABC-1 | 1.1
BEN | 1.06
CAL-12T | 0.963
COR-L23 | 1.11
COR-L 105 | 0.986
Calu-6 | 1.1
ChaGo-K-1 | 1.03
EBC-1 | 1.11
EKVX | 1.04
EMC-BAC-2 | 1.07
EPLC-272H | 1.12
H3255 | 1.01
HARA | 1.07
HCC-15 | 1.02
HCC-44 | 0.993

Cell Line | relative viability
HCC-78 | 0.994
HCC-366 | 1.02
HCC-827 | 1.07
HOP-62 | 1.02
IA-LM | 0.923
LC-2-ad | 0.969
LCLC-97TM1 | 1.19
LCLC-103H | 1.01
LK-2 | 1.29
LOU-NH91 | 1
LU99A | 0.999
NCI-H441 | 1.13
NCI-H522 | 0.99
NCI-H1623 | 1.07
NCI-H1648 | 0.968
NCI-H2342 | 0.989
SW 900 | 0.89

Same assay, conditions: 15.81 µM

Cell Line | relative viability
201T | 0.965
A549 | 0.929
A-427 | 0.86
ABC-1 | 0.525
BEN | 0.98
CAL-12T | 0.878
COR-L23 | 0.771
COR-L 105 | 0.644
Calu-6 | 0.951
ChaGo-K-1 | 0.861
EBC-1 | 0.726
EKVX | 0.698
EMC-BAC-2 | 0.976
EPLC-272H | 0.713
H3255 | 0.801
HARA | 0.765
HCC-15 | 0.947

Cell Line | relative viability
HCC-44 | 0.877
HCC-78 | 0.884
HCC-366 | 0.983
HOP-62 | 0.999
IA-LM | 0.152
LC-2-ad | 0.526
LCLC-97TM1 | 0.963
LCLC-103H | 0.972
LK-2 | 1.08
LOU-NH91 | 0.764
LU99A | 0.885
NCI-H441 | 0.791
NCI-H522 | 0.922
NCI-H1623 | 0.783
NCI-H1648 | 0.808
NCI-H2342 | 1.03
SW 900 | 0.642
